Several values for one entry are separate records, joined by “and”; a condition that tells them apart may be missing. Equal values may be shown once. Read-outs that look alike come from different tables or passages of the source.
Experiments:
[1] = test system: wheat scab; type: in vivo
[2] = type: in vivo, wheat; settings: in vivo
[3] = test system: powdery mildew; type: in vivo, wheat; settings: in vivo
[4] = test system: powdery mildew; type: in vivo, wheat; settings: in vivo; remark: listed apart in the source
[5] = test system: powdery mildew; type: in vivo, wheat; settings: in vivo; remark: listed apart in the source
[6] = type: in vivo, wheat; settings: in vivo; remark: listed apart in the source
[7] = test system: wheat scab; type: in vivo; remark: listed apart in the source
[8] = test system: wheat scab; type: in vivo; settings: Preparation 100 g/mu; Jinggangmycin 20, Tebuconazole 0 g ai. agent/mu
[9] = test system: leaf blight; type: in vivo, wheat; settings: in vivo
[10] = test system: leaf blight; parameters: species or system wheat; settings: in vivo
[11] = test system: carbendazim-resistant Fusarium asiaticum; assay: microbe, parasite or virus in culture; type: cell-based; settings: for inhibition at 1 µg/mL / inhibition at 10 µg/mL / inhibition at 100 µg/mL / inhibition at 1000 µg/mL / inhibition at 10000 µg/mL: Fusarium asiaticum, read-out: DON Biosynthesis Inhibition Rate
[12] = test system: leaf blight; type: in vivo, wheat; settings: in vivo; remark: listed apart in the source
[13] = test system: Fusarium graminearum; assay: microbe, parasite or virus in culture; type: cell-based; settings: for Average Fungal Colony Diameter F.g: sensitive strains
[14] = test system: wheat scab; type: in vivo; remark: listed apart in the source
[15] = test system: rust; parameters: species or system barley; settings: in vivo
[16] = test system: wheat scab; type: in vivo; remark: listed apart in the source
[17] = test system: powdery mildew; type: in vivo, wheat; settings: in vivo; remark: listed apart in the source
[18] = test system: rust; type: in vivo, wheat; settings: in vivo
[19] = test system: Fusarium asiaticum; assay: microbe, parasite or virus in culture; type: cell-based
[20] = test system: leaf rust fungus; parameters: species or system wheat; settings: in vivo
[21] = test system: rust; parameters: species or system wheat; settings: in vivo
[22] = test system: rust; type: in vivo, wheat; settings: in vivo; remark: listed apart in the source
[23] = test system: rust; type: in vivo, wheat; settings: in vivo; remark: listed apart in the source
[24] = test system: wheat scab; type: in vivo; settings: Preparation 100 (mL/mu); Jinggangmycin 20, Tebuconazole 0 g ai. agent/mu
[25] = test system: Tri5 gene; type: cell-based, Fusarium asiaticum
[26] = test system: powdery mildew fungus; parameters: species or system wheat; settings: in vivo
[27] = test system: Fusarium graminearum and Fusarium asiaticum; assay: organism not typed; type: cell-based; settings: read-out: inhibitory effect on the growth of the two types of Fusaria
[28] = test system: rust; type: in vivo, wheat; settings: in vivo; remark: listed apart in the source
[29] = test system: leaf blight; type: in vivo, wheat; settings: in vivo; remark: listed apart in the source
[30] = test system: powdery mildew; type: in vivo, wheat; settings: in vivo; remark: listed apart in the source

Structure (SMILES): OCC1=CC(N[C@H]2C[C@H](CO)[C@@H](OC3O[C@H](CO)[C@@H](O)[C@H](O)[C@H]3O)C(O)[C@H]2O)[C@H](O)[C@@H](O)C1O (stereo partly shown) [Jinggangmycin, jinggangmycin A]
- Disease Index Prevention Effect % Head Blight ([1]; Preparation 15 g/mu, Jinggangmycin 3 g ai. agent/mu): 0%
- Disease Index Prevention Effect % Head Blight ([1]; Preparation 37.5 g/mu, Jinggangmycin 7.5 g ai. agent/mu): 24.2%
- Disease Index Prevention Effect % Head Blight ([1]; Preparation 50 g/mu, Jinggangmycin 10 g ai. agent/mu): 32.4%
- Thousand Kernel Weight [2]: 37.5 g and 38.6 g and 37.6 g
- Disease Index Prevention Effect % Powdery Mildew [3]: 8.6% and 6.6% and 3% and 1.8%
- Disease Index Prevention Effect % Powdery Mildew [4]: 8.5% and 0%
- Disease Index Prevention Effect % Powdery Mildew [5]: 10.6%
- Thousand Kernel Weight [6]: 38.5 g and 40.1 g and 37.8 g and 41.5 g
- Disease Index Prevention Effect % Head Blight ([7]; Preparation 30 g/mu, Jinggangmycin 6 g ai. agent/mu): 7.4%
- Disease Index Prevention Effect % Head Blight ([7]; Preparation 45 g/mu, Jinggangmycin 9 g ai. agent/mu): 9.4%
- Disease Index Prevention Effect % Head Blight ([7]; Preparation 60 g/mu, Jinggangmycin 12 g ai. agent/mu): 10.2%
- Disease Index Prevention Effect % Head Blight ([7]; Preparation 75 g/mu, Jinggangmycin 15 g ai. agent/mu): 34.2%
- Disease Index Prevention Effect % Head Blight [8]: 40.2%
- Disease Index Prevention Effect % Leaf Blight [9]: 7.8%
- Disease Index Prevention Effect % Leaf Blight [10]: 8.5% and 7.9% and 0%
- inhibition at 1 µg/mL ([11]; 168 h): 28.6%
- inhibition at 10 µg/mL ([11]; 168 h): 35.5%
- inhibition at 100 µg/mL ([11]; 168 h): 45.2%
- inhibition at 1000 µg/mL ([11]; 168 h): 65.5%
- inhibition at 10000 µg/mL ([11]; 168 h): 75.9%
- inhibition at 1 µg/mL ([11]; 336 h): 1.7%
- inhibition at 10 µg/mL ([11]; 336 h): 7.87%
- inhibition at 100 µg/mL ([11]; 336 h): 29.9%
- inhibition at 1000 µg/mL ([11]; 336 h): 57%
- inhibition at 10000 µg/mL ([11]; 336 h): 75.4%
- Toxin Production Capability of Hyphae ([11]; Jinggangmycin 1 μg/ml, 7 days of culture): 62.82 μgDON/g by dry weight of hyphae
- Toxin Production Capability of Hyphae ([11]; Jinggangmycin 1 μg/ml, 14 days of culture): 51.43 μgDON/g by dry weight of hyphae
- Toxin Production Capability of Hyphae ([11]; Jinggangmycin 10 μg/ml, 7 days of culture): 56.76 μgDON/g by dry weight of hyphae
- Toxin Production Capability of Hyphae ([11]; Jinggangmycin 10 μg/ml, 14 days of culture): 48.20 μgDON/g by dry weight of hyphae
- Toxin Production Capability of Hyphae ([11]; Jinggangmycin 100 μg/ml, 7 days of culture): 48.23 μgDON/g by dry weight of hyphae
- Toxin Production Capability of Hyphae ([11]; Jinggangmycin 100 μg/ml, 14 days of culture): 36.68 μgDON/g by dry weight of hyphae
- Toxin Production Capability of Hyphae ([11]; Jinggangmycin 1000 μg/ml, 7 days of culture): 30.35 μgDON/g by dry weight of hyphae
- Toxin Production Capability of Hyphae ([11]; Jinggangmycin 1000 μg/ml, 14 days of culture): 22.52 μgDON/g by dry weight of hyphae
- Toxin Production Capability of Hyphae ([11]; Jinggangmycin 10000 μg/ml, 7 days of culture): 21.23 μgDON/g by dry weight of hyphae
- Toxin Production Capability of Hyphae ([11]; Jinggangmycin 10000 μg/ml, 14 days of culture): 12.85 μgDON/g by dry weight of hyphae
- Disease Index Prevention Effect % Leaf Blight [12]: 8.6% and 8.8% and 5.8%
- inhibition at 50 µg/mL ([13]; Fusarium graminearum, read-out: Growth Inhibition Rate F.g): 6.6%
- Average Fungal Colony Diameter F.g ([13]; Jinggangmycin A 0.1 μg/mL): 76.3 mm
- Average Fungal Colony Diameter F.g ([13]; Jinggangmycin A 1.0 μg/mL): 76.2 mm
- Average Fungal Colony Diameter F.g ([13]; Jinggangmycin A 10.0 μg/mL): 75.4 mm
- Average Fungal Colony Diameter F.g ([13]; Jinggangmycin A 50.0 μg/mL): 70.3 mm
- Disease Index Prevention Effect % Head Blight ([14]; Jinggangmycin 6 g ai. agent/mu): 0%
- Disease Index Prevention Effect % Head Blight ([14]; Jinggangmycin 9 g ai. agent/mu): 17.6%
- Disease Index Prevention Effect % Head Blight ([14]; Jinggangmycin 15 g ai. agent/mu): 28.3%
- Disease Index Prevention Effect % Head Blight ([14]; Jinggangmycin 21 g ai. agent/mu): 35.4%
- Disease Index Prevention Effect % Rust [15]: 0%
- Disease Index Prevention Effect % Head Blight ([16]; Jinggangmycin 0.5 g ai. agent/mu): 0.0%
- Disease Index Prevention Effect % Head Blight ([16]; Jinggangmycin 1.0 g ai. agent/mu): 0.0%
- Disease Index Prevention Effect % Head Blight ([16]; Jinggangmycin 1.3 g ai. agent/mu): 0.0%
- Disease Index Prevention Effect % Head Blight ([16]; Jinggangmycin 2.5 g ai. agent/mu): 0.0%
- Disease Index Prevention Effect % Head Blight ([16]; Jinggangmycin 5.0 g ai. agent/mu): 0.0%
- Disease Index Prevention Effect % Head Blight ([16]; Jinggangmycin 8.0 g ai. agent/mu): 17.9%
- Disease Index Prevention Effect % Head Blight ([16]; Jinggangmycin 14.0 g ai. agent/mu): 23.7%
- Disease Index Prevention Effect % Head Blight ([16]; Jinggangmycin 16.0 g ai. agent/mu): 27.8%
- Disease Index Prevention Effect % Head Blight ([16]; Jinggangmycin 28.0 g ai. agent/mu): 29.6%
- Disease Index Prevention Effect % Powdery Mildew [17]: 10.6%
- Disease Index Prevention Effect % Rust [18]: 8.9% and 0%
- Average Fungal Colony Diameter F.a [19]: 76.3 mm and 75.6 mm and 69.4 mm
- inhibition at 50 µg/mL ([19]; Fusarium asiaticum, read-out: Growth Inhibition Rate F.a): 7.8%
- Incidence Prevention Effect % Rust [20]: 0% and 4.5%
- Disease Index Prevention Effect % Rust [21]: 5.1% and 3.6% and 0%
- Disease Index Prevention Effect % Rust [22]: 6.5%
- Disease Index Prevention Effect % Rust [23]: 6.5%
- Disease Index Prevention Effect % Head Blight [24]: 34.2%
- Rate of Inhibition on Relative Expression Level of Tri5 Gene [25]: 59% and 66% and 84% and 87% and 90%
- Incidence Prevention Effect % Powdery Mildew [26]: 0% and 6.5%
- inhibition at 50 µg/mL [27]: 6.5 to 7.8%
- Disease Index Prevention Effect % Rust [28]: 6.8% and 6.5% and 0%
- Disease Index Prevention Effect % Leaf Blight [29]: 7.8%
- Disease Index Prevention Effect % Powdery Mildew [30]: 7.3% and 4.4% and 4.5% and 0%

Reference: patent publication US10588316B2 (priority 2015, dated 2020)
